Assay results taken from a melting point compilation (Tetko et al.; mined from patent text by program, amines drawn as free bases though some values may be those of a salt).

melting point | Compound
253 to 254 °C | CCCn1c(=O)c2[nH]c(/C=C/c3ccc(C)c(C)c3)nc2n(CCC)c1=O
83 to 84 °C | N#CC(CCc1ccc(Cl)cc1)(c1ccccc1)c1cccnc1 (configuration not stated)
119 to 120 °C | COc1cc(C=O)ccc1OCc1coc(-c2ccccc2)n1
298 °C | CCn1cc(C(=O)O)c(=O)c2cc3cc(F)c(N4CCNC(c5ccc(F)cc5)C4)cc3nc21 (racemic)
69 °C | CCOC(=O)C1C(C#N)C1(C)C (configuration not stated)
117 to 119 °C | C(=C(c1ccccc1)c1ccccc1)c1ccccn1
160 °C | CSc1nnc(SCC2=C(C(=O)O)N3C(=O)C(NC(=O)Cc4csc(=O)s4)C3SC2)s1 (configuration not stated)
202 to 204 °C | COC(=O)c1sc2ccc(NC=O)cc2c1N
231 to 235 °C | Cc1cc(Br)cnc1CCCCNC1=NS(=O)(=O)c2ccc(Cl)cc21
110 to 111 °C | CCCCCCCN(CCN1CCN(CCSc2nc3ccccc3o2)CC1)C(=O)Nc1c(C(C)C)cccc1C(C)C
267 to 268 °C | Cc1cc(O)ccc1-n1cc(C(=O)O)c(=O)cc1C=NN1CCOCC1
105 to 107 °C | CCOC(=NC(=O)OC)NC(=O)Nc1cc(C(=O)OC)c(Cl)cc1F
224 to 226 °C | CC(C)c1ccc(N2CC(=O)N(c3cccc(C(=O)O)c3)C2=O)cc1
149 to 152 °C | COc1ccc(Cl)cc1-c1cccc2c1OC(CN)C2 (configuration not stated)
184 to 185 °C | Cc1cccc(CC(=O)O)c1OCCCc1cn(-c2ccc(C(F)(F)F)cn2)nc1C1CCCCC1
101 to 105 °C | C=C(CC(C)C)C(=O)O
153 to 154 °C | COc1ccc(N2C(=O)C3=C(SCCS3)C2O)cc1 (configuration not stated)
156 °C | Cc1coc(C)c1C(=O)OC1CC(C)(C)N(CC#N)C(C)(C)C1
154 to 156 °C | CN(C)c1ccc(-c2ccnc(Nc3ccc4c(c3)OCCO4)c2)cc1
158 to 160 °C | CN1CC(C(=O)c2coc(Cc3ccc(F)cc3)c2)=C(O)C1=O
75 to 79 °C | COc1cc(S(C)(=O)=O)c(C)cc1OCC(=O)NCC(O)COc1ccccc1C (configuration not stated)
126 °C | CC(=O)CNC(=O)Cc1ccccc1
116 to 118 °C | CCCCCCNC(=O)c1cnc2cccc(C)n2c1=O
118 to 120 °C | O=C(O)C1=Cc2cc(OC(F)(F)F)ccc2OC1C(F)(F)F (configuration not stated)
72 to 74 °C | O=S(=O)(c1ccccc1)C(F)(F)C(O)c1ccco1 (configuration not stated)

melting point | Compound
216 to 218 °C | Cc1ccc(CCc2cc(Br)c3nc(N)sc3c2)nc1
< 65 °C | CC(=O)OCC1OC(n2c(Br)nc3cc(Cl)c(Cl)cc32)C(OC(C)=O)C1OC(C)=O (configuration not stated)
108 to 110 °C | CCOC(=O)c1cc(-c2nnn(C)n2)c(-c2ccc(F)cc2)s1
83 to 84 °C | O=C(c1ccc[nH]1)C1CCCCC1
158 to 160 °C | C=CC(=O)N1c2ccccc2CC1C(=O)O (configuration not stated)
188 to 193 °C | CC(=O)OCc1c(-c2cc(Nc3cc4n(n3)CCN(C)C4)c(=O)n(C)n2)cccc1-n1ncc2cc(C(C)(C)C)cc(F)c2c1=O
83 to 89 °C | C=C1CCC2C3CCC4=CC(=O)CCC4C3CCC12C (configuration not stated)
223 to 224 °C | O=C(O)COc1ccc(CN2C(=O)C3(COc4cc5c(cc43)OCCO5)c3ccccc32)cc1 (configuration not stated)
127 °C | CC(=O)OC1CSC(Oc2cccc(I)c2)C(OC(C)=O)C1OC(C)=O (configuration not stated)
168 to 170 °C | CC1(C)CN2C(=O)c3ccccc3C(O)(c3ccc(F)cc3)C2=N1 (configuration not stated)
30 °C | CCCCCCCCCCCCCCCCCC(=O)OCCN1C(C)(C)CCCC1(C)C
212 to 216 °C | O=C(O)c1ccc(Cn2ccc3cc(OCc4ccc5ccccc5n4)ccc32)cc1
101 °C | CCCCCCCCCCCCCCCCCCN=Cc1ccc(O)cc1
102 to 104 °C | CCOC(=O)C=Cc1ccc(CCNS(=O)(=O)C=Cc2ccccc2)cc1
146 to 147 °C | CCCc1[nH]c2cc(C(=O)OC)ccc2c1C(=O)C=C(C)C
306 to 309 °C | CN(C)c1ncnc2[nH]c(-c3ccc(CO)cc3)cc12
230 to 234 °C | COc1ccc(Cl)cc1-n1c(N(C)C)nc2cc(C(F)(F)F)ccc21
170 to 175 °C | CCN(CC)c1ccc(NC(=O)N(C[C@H]2CC[C@H](CN(C(=O)Nc3ccc(N(CC)CC)cc3)C3CCCCCC3)CC2)C2CCCCCC2)cc1
83 to 85 °C | Cc1cc(C2(C(F)(F)F)CC(Cl)=NO2)ccc1NC(=O)OC(C)(C)C (configuration not stated)
110 to 113 °C | Cc1cc2c(cc1[N+](=O)[O-])C(=O)CC(C)O2 (configuration not stated)
122 °C | O=S(=O)(c1ccccc1)N1CCCC1c1ccc(Cl)cc1 (racemic)
144 to 146 °C | OCCCCc1cn(C(c2ccccc2)(c2ccccc2)c2ccccc2)cn1
106 to 107 °C | Cc1c(F)c(N)cc([N+](=O)[O-])c1F
280 to 282 °C | C=Cn1cc(C(=O)OCC)c(=O)c2cc(F)c(N3CCC(NC(=O)C(F)(F)F)C3)nc21 (configuration not stated)
123 °C | CC(C)(O)CNC(=O)c1cccc(-c2cccc3cc(Cc4cc(F)cc(Cl)c4)sc23)c1

melting point | Compound
104 °C | CCCN(CCN1CCN(c2cccc(Cl)c2Cl)CC1)C1CCc2ncsc2C1 (configuration not stated)
218 to 219 °C | O=C(O)c1ccc(CN(C2CCOCC2)S(=O)(=O)c2ccc(Cl)cc2)cc1
132 to 134 °C | CCOC(=O)c1cnc2c(C)csc2c1Nc1ccccc1C
110 to 112 °C | O=C1N(Cc2ccco2)c2ccccc2C12COc1cc3c(cc12)OCO3 (configuration not stated)
41 to 42 °C | CCCCCCN(Cc1ccc(F)cc1)c1ccc(C(=O)OCC)cc1
152 to 154 °C | CCCNC(=O)C1CC(=O)N(c2cc(C(F)(F)F)cc(C(F)(F)F)c2)C1 (configuration not stated)
46 to 48 °C | CCCCCCCCCOC1CCC(=O)N1 (configuration not stated)
146 °C | CCCCCC#CCC(Cc1cccnc1)(C(=O)NO)S(=O)(=O)c1ccc(OC)cc1 (configuration not stated)
75 to 78 °C | CC(C)(C)OCc1cc(Oc2ccc(C(F)(F)F)cc2Cl)ccc1[N+](=O)[O-]
151 to 153 °C | COc1nc2c(C)cc(C)cc2c(-c2ccccc2Cl)c1NC(=O)Nc1cccc(C(F)(F)F)c1
261 to 263 °C | O=C(Nc1cn2cc(-n3ccnc3)ccc2n1)c1ccc(-c2ccoc2)cc1
126 to 128 °C | Cc1nccn1CCCNC(=O)c1cccnc1Cl
139 °C | COC(=O)/C=C/c1cc(C)cc(NC(C)=O)n1
186 to 189 °C | COC(=O)c1ccc(COC(=O)Nc2ccc(-c3ccccc3)n(CC(=O)NC(Cc3ccccc3)C(=O)C(F)(F)F)c2=O)cc1 (configuration not stated)
25 to 35 °C | CC(C)(N)CNCCCCCCNCC(C)(C)N
> 300 °C | O=c1[nH]c2cc(Cl)ccc2c(O)c1-c1cccc(Cl)c1
127 to 130 °C | O=C(NCc1ncc(C(F)(F)F)cc1Cl)c1ccccc1C(F)(F)F
54.3 to 55.9 °C | O=C(O)[C@@H]1CS[C@@H](CS)C1
151 to 152 °C | COC(=O)c1nc(OC(C)=O)cc2c1[nH]c1ccccc12
94 to 96 °C | CC(C)OC(=O)c1cc(Cl)c(Cl)c(-c2ccccc2)n1
34 °C | CCOCCC(=O)NN
103 to 104 °C | Nc1ccccc1N1CCN(CC(O)COc2cccc3c2CCCC3)CC1 (configuration not stated)
108 to 110 °C | CC(C)(CCl)C(OC(=O)C(Cl)Cl)C(Oc1ccc(Cl)cc1)n1ccnc1 (configuration not stated)
294 to 296 °C | O=c1cc(-c2ccccc2)oc2ncc(CN3CCCC3)cc12
85 to 135 °C | CCCCCCCCCCC#Cc1csc(CC(N)CO)c1 (configuration not stated)

melting point | Compound
120 to 122 °C | Cc1cc(F)ccc1Nc1nc(N2CCc3ccccc3C2C)c2cccc(OCCO)c2n1 (configuration not stated)
265 to 266 °C | FC(F)Oc1ccc(-c2nnc(Nc3ccc(Cl)c(Cl)c3)s2)cc1
94 to 96 °C | CCOC(=O)C=Cc1cc(C=CC(=O)OCC)cc(Cc2cccnc2)c1
112 to 115 °C | O=Cc1ccc2nccc(Oc3ccccc3)c2c1
153 °C | CCc1nc(NC(C)=O)nc(NC(C)c2cccs2)n1 (configuration not stated)
191 to 193 °C | Nc1ccc2c(c1)S(=O)(=O)N=C2NCCCOc1cccc(CN2CCCCC2)c1
> 250 °C | O=c1[nH]c2ccc(C(F)(F)F)cc2c2c1c(=O)oc1ccc(Cl)cc12
> 250 °C | CCNC(=NC#N)NCC(=O)N(C)c1ccc(Cl)c(COc2cccn3c(Br)c(C)nc23)c1Cl
96 to 97 °C | CCC(CC)(CC(=O)Nc1cccc(OCc2ccc3ccc(OC)cc3n2)c1)C(=O)O
127 to 131 °C | CCC(CC)n1cnc2c(Oc3c(C)cc(C)cc3C)nc(C)cc21
184 °C | Cc1cc(Nc2ccnc(Nc3ccc(S(=O)(=O)N(Cc4ccco4)C4CCN(C)CC4)cc3)n2)ccc1F
189 to 192 °C | COC(=O)c1cc(S(C)(=O)=O)ccc1OCc1ccccn1
81 to 83 °C | COc1ccc(C(C)c2cc(O)ccc2OC)cc1 (configuration not stated)
240 to 243 °C | Nc1nc2ccccc2c2c1nc1n2C(C2CCOCC2)COC1 (configuration not stated)
129 °C | COC(=O)c1cc2cc(OC(F)(F)F)ccc2[nH]1
186 to 188 °C | Cc1cccc(Nc2nc(Cl)nc(Cl)n2)c1C
166 to 170 °C | COc1ccc(-c2sc3cc(OC)ccc3c2C(=O)O)cc1
154 to 158 °C | CCCc1c(OCCCCCCc2ccc3cc(O)c(O)cc3c2)ccc(C(=O)O)c1O
161 to 162 °C | O=c1ccn([C@H]2C=C[C@@H](O)CC2)c(=O)[nH]1 (racemic)
109 to 110 °C | c1ccc(COc2ccc(-c3cscn3)cc2)cc1
129 to 131 °C | CN(C)S(=O)(=O)c1cccc2c1Sc1ccc(OC3CCCCO3)cc1N2CCCN1CCC(CCO)CC1 (configuration not stated)
227 to 229 °C | CC(C)CCn1c(=O)[nH]c2cc(Cl)cc(Cl)c2c1=O

Compound | melting point
Cc1nc(C=O)c2n1-c1ccc(Cl)cc1C(c1ccccc1)=NC2 | 218 to 220 °C
CCC(C)(Cc1c[nH]c2ccc(F)cc12)[N+](=O)[O-] (configuration not stated) | 71 to 72 °C
CC(c1ccccc1)n1cncc1C(=O)O (single isomer, unassigned; (-)) | 155 °C
CC(=O)C(C#N)c1cccc(Br)c1 (configuration not stated) | 96 to 100 °C
COC1Nc2c(OC(C)=O)cccc2C(=O)N2CCCC12 (configuration not stated) | 147 to 150 °C
